Results: patent publication USRE47689E1, “Compounds for treating spinal muscular atrophy” (PTC Therapeutics, Inc., priority 2011, dated 2019)

Key:
[1] = test system: SMN2 minigene (full length SMN2 minigene mRNA containing SMN2 exon 7); assay: SMN2 minigene mRNA splicing RT-qPCR assay in cultured cells; assay type: cell-based, human; conditions: Homo sapiens, HEK293-H; HEK293H cells stably transfected with SMN2-A minigene; 24 hours; 7-point concentration curve; 1.5-fold relative to vehicle-treated cells; read-out: EC1.5x for production of full length SMN2 mRNA
Procedure, shortened: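 HEK293H cells stably carrying the SMN2-A minigene treated 24 h at 37° C with compound (DMSO, 200× stock), then lysed. Multiplex RT-qPCR (SMN primers 0.4 μM final; 40 cycles) measures full-length exon 7-containing minigene mRNA, normalized to GAPDH and to vehicle; EC1.5x derived and binned by stars.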

Smn protein = Smn protein assay in cultured cells (SMN HTRF); assay type: cell-based, human; conditions: 48 hours; for EC1.5x (concentration giving 1.5-fold Smn protein increase): SMA Type 1 patient fibroblast cells (GM03813), 7-point concentration curve, SMN HTRF, concentration producing 1.5 times Smn protein vs DMSO vehicle control, read-out: EC1.5x for Smn protein expression; for maximum fold (Fold) increase of Smn protein: SMA patient fibroblast cells, 7-point concentration data, fold increase relative to vehicle control (SMN HTRF)
Procedure, shortened: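 Lysates in RIPA with protease inhibitors are incubated overnight at room temperature with HTRF anti-SMN antibodies. EC1.5x is derived from fold increase in ΔF over vehicle.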

| melting point [°C] | SMILES | EC (1.5-fold) [1] [µM] | EC1.5x (concentration giving 1.5-fold Smn protein increase) (Smn protein) [nM] | maximum fold (Fold) increase of Smn protein (Smn protein) |
| --- | --- | --- | --- | --- |
| 221 to 225 | Cc1cn2cc(-c3cc4ccc(N5CCN(C(C)C)CC5)cc4oc3=O)cc2cn1 [Compound 692, 3-(3-methylpyrrolo[1,2-a]pyrazin-7-yl)-7-[4-(propan-2-yl)piperazin-1-yl]-2H-chromen-2-one] | < 0.1 | < 300 | **** (fold increase between >1.5 and ≤1.65) |
| 214 to 221 | O=c1oc2cc(N3CCNCC3)ccc2cc1-c1noc(-c2ccccc2)n1 [Cpd 50, 3-(5-phenyl-1,2,4-oxadiazol-3-yl)-7-(piperazin-1-yl)-2H-chromen-2-one] | 1 to 3 | – | * (maximum fold increase of ≤1.2) |
| 249 to 252 | O=c1oc2cc(N3CCNCC3)ccc2cc1-c1cn2cccc(C(F)(F)F)c2n1 [Compound 209, 7-(piperazin-1-yl)-3-[8-(trifluoromethyl)imidazo[1,2-a]pyridin-2-yl]-2H-chromen-2-one] | 0.3 to 1 | – | * (maximum fold increase of ≤1.2) |
| 308 to 310 | Cc1cnc2nc(-c3cc4ccc(N5C[C@@H](C)N[C@@H](C)C5)cc4oc3=O)cn2c1 [Compound 243, 7-[(3R,5S)-3,5-dimethylpiperazin-1-yl]-3-(6-methylimidazo[1,2-a]pyrimidin-2-yl)-2H-chromen-2-one] | 0.3 to 1 | 3000 to 10000 | ** (fold increase between >1.2 and ≤1.35) |
| 288 to 294 | C[C@@H]1CN(c2cc(F)c3cc(-c4nc5ccccc5[nH]4)c(=O)oc3c2)C[C@H](C)N1 [Compound 371, 3-(1H-benzimidazol-2-yl)-7-[(3R,5S)-3,5-dimethylpiperazin-1-yl]-5-fluoro-2H-chromen-2-one] | 0.3 to 1 | – | * (maximum fold increase of ≤1.2) |
| 175 to 180 | CN(C)CCN(C)c1ccc2cc(-c3cn4cccnc4n3)c(=O)oc2c1 [Compound 130, 7-{[2-(dimethylamino)ethyl](methyl)amino}-3-(imidazo[1,2-a]pyrimidin-2-yl)-2H-chromen-2-one] | 1 to 3 | – | * (maximum fold increase of ≤1.2) |
| 212 to 216 | CCN(CC)CCCCc1ccc2cc(-c3cn4cc(C)nc(C)c4n3)c(=O)oc2c1 [Compound 970, 7-[4-(diethylamino)butyl]-3-(6,8-dimethylimidazo[1,2-a]pyrazin-2-yl)-2H-chromen-2-one] | 0.3 to 1 | 300 to 1000 | ***** (fold increase >1.65) |
| 238 to 240 | C[C@@H]1CN(c2ccc3cc(-c4nc5c(Cl)cccc5o4)c(=O)oc3c2)C[C@H](C)N1 [Compound 69, 3-(4-chloro-1,3-benzoxazol-2-yl)-7-[(3R,5S)-3,5-dimethylpiperazin-1-yl]-2H-chromen-2-one] | 0.1 to 0.3 | – | * (maximum fold increase of ≤1.2) |
| 185 to 188 | Cc1cn2cc(-c3cc4ccc(OCCNCC(C)O)cc4oc3=O)nc2c(C)n1 (centres unmarked) [Compound 961, 3-(6,8-dimethylimidazo[1,2-a]pyrazin-2-yl)-7-{2-[(2-hydroxypropyl)amino]ethoxy}-2H-chromen-2-one] | < 0.1 | < 300 | *** (fold increase between >1.35 and ≤1.5) |
| 169 to 173 | Cc1cn2cc(-c3cc4ccc(N5CCN6CCC[C@H]6C5)cc4oc3=O)cc2c(C)n1 [Compound 673, 3-(1,3-dimethylpyrrolo[1,2-a]pyrazin-7-yl)-7-[(8aS)-hexahydropyrrolo[1,2-a]pyrazin-2(1H)-yl]-2H-chromen-2-one] | < 0.1 | < 300 | ***** (fold increase >1.65) |
